PubChem BioAssay (NCI)
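The compound was tested at five concentrations on cells cultured in 96-well plates, with a 48-hour exposure period. GI50 = concentration required for 50% inhibition of growth. Definition used: TGI = concentration required for complete inhibition of growth.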

Tests used:
Assay in all cases: NCI anticancer screen, dose series, 48 h
EKVX NSCLC = test system: EKVX NSCLC
CAKI-1 renal = test system: CAKI-1 renal
HT29 colon = test system: HT29 colon
TK-10 renal = test system: TK-10 renal
SK-MEL-2 melanoma = test system: SK-MEL-2 melanoma
OVCAR-5 ovarian = test system: OVCAR-5 ovarian
NCI-H460 lung = test system: NCI-H460 lung
MDA-MB-231 breast = test system: MDA-MB-231 breast
UACC-257 melanoma = test system: UACC-257 melanoma
MDA-MB-435 = test system: MDA-MB-435
MALME-3M melanoma = test system: MALME-3M melanoma
HOP-62 NSCLC = test system: HOP-62 NSCLC
RXF 393 renal = test system: RXF 393 renal
M14 melanoma = test system: M14 melanoma
OVCAR-8 ovarian = test system: OVCAR-8 ovarian
SK-MEL-5 melanoma = test system: SK-MEL-5 melanoma
CCRF-CEM leukemia = test system: CCRF-CEM leukemia
OVCAR-4 ovarian = test system: OVCAR-4 ovarian
A549 NSCLC = test system: A549 NSCLC
BT-549 breast = test system: BT-549 breast
NCI-H226 lung = test system: NCI-H226 lung
HL-60(TB) leukemia = test system: HL-60(TB) leukemia
UACC-62 melanoma = test system: UACC-62 melanoma
DU-145 prostate = test system: DU-145 prostate
NCI-H23 lung = test system: NCI-H23 lung
SK-OV-3 ovarian = test system: SK-OV-3 ovarian
OVCAR-3 ovarian = test system: OVCAR-3 ovarian
SNB-75 CNS = test system: SNB-75 CNS
SNB-19 CNS = test system: SNB-19 CNS
NCI-H522 lung = test system: NCI-H522 lung
NCI/ADR-RES ovarian = test system: NCI/ADR-RES ovarian
HS 578T breast = test system: HS 578T breast
U251 CNS = test system: U251 CNS
LOX IMVI melanoma = test system: LOX IMVI melanoma
SF-539 CNS = test system: SF-539 CNS
SF-295 CNS = test system: SF-295 CNS
A498 renal = test system: A498 renal
SN12C renal = test system: SN12C renal
ACHN renal = test system: ACHN renal
HCT-15 colon = test system: HCT-15 colon
RPMI-8226 leukemia = test system: RPMI-8226 leukemia
SK-MEL-28 melanoma = test system: SK-MEL-28 melanoma
PC-3 prostate = test system: PC-3 prostate
SW-620 colon = test system: SW-620 colon
HCT-116 colon = test system: HCT-116 colon
IGROV1 ovarian = test system: IGROV1 ovarian
HOP-92 NSCLC = test system: HOP-92 NSCLC
UO-31 renal = test system: UO-31 renal
786-0 renal = test system: 786-0 renal
COLO 205 colon = test system: COLO 205 colon
K-562 leukemia = test system: K-562 leukemia
SF-268 CNS = test system: SF-268 CNS
HCC-2998 colon = test system: HCC-2998 colon
MOLT-4 leukemia = test system: MOLT-4 leukemia
KM12 colon = test system: KM12 colon
SR leukemia = test system: SR leukemia

COc1ccc2[nH]c(C(=O)N3CCN(C(=O)OCc4ccc5c(Cl)cc(Cl)c(O)c5n4)CC3)cc2c1
GI50 (EKVX NSCLC): 1610 nM
TGI (EKVX NSCLC): 2970 nM
GI50 (CAKI-1 renal): 357 nM
TGI (CAKI-1 renal): 1650 nM
GI50 (HT29 colon): 1080 nM
TGI (HT29 colon): 2480 nM
GI50 (TK-10 renal): 1420 nM
TGI (TK-10 renal): 2720 nM
GI50 (SK-MEL-2 melanoma): 1610 nM
TGI (SK-MEL-2 melanoma): 3060 nM
GI50 (OVCAR-5 ovarian): 1610 nM
TGI (OVCAR-5 ovarian): 3080 nM
GI50 (NCI-H460 lung): 1180 nM
TGI (NCI-H460 lung): 2760 nM
GI50 (MDA-MB-231 breast): 1340 nM
TGI (MDA-MB-231 breast): 2870 nM
GI50 (UACC-257 melanoma): 1410 nM
TGI (UACC-257 melanoma): 2800 nM
GI50 (MDA-MB-435): 1200 nM
TGI (MDA-MB-435): 2720 nM
GI50 (MALME-3M melanoma): 1590 nM
TGI (MALME-3M melanoma): 3020 nM
GI50 (HOP-62 NSCLC): 1560 nM
TGI (HOP-62 NSCLC): 3360 nM
GI50 (RXF 393 renal): 557 nM
TGI (RXF 393 renal): 1810 nM
GI50 (M14 melanoma): 1150 nM
TGI (M14 melanoma): 2600 nM
GI50 (OVCAR-8 ovarian): 1010 nM
TGI (OVCAR-8 ovarian): 2420 nM
GI50 (SK-MEL-5 melanoma): 1660 nM
TGI (SK-MEL-5 melanoma): 3030 nM
GI50 (CCRF-CEM leukemia): 275 nM
TGI (CCRF-CEM leukemia): 1670 nM
GI50 (OVCAR-4 ovarian): 1530 nM
TGI (OVCAR-4 ovarian): 3070 nM
GI50 (A549 NSCLC): 1550 nM
TGI (A549 NSCLC): 3390 nM
GI50 (BT-549 breast): 1040 nM
TGI (BT-549 breast): 2340 nM
GI50 (NCI-H226 lung): 1180 nM
TGI (NCI-H226 lung): 2560 nM
GI50 (HL-60(TB) leukemia): 977 nM
TGI (HL-60(TB) leukemia): 2850 nM
GI50 (UACC-62 melanoma): 1280 nM
TGI (UACC-62 melanoma): 2590 nM
GI50 (DU-145 prostate): 1190 nM
TGI (DU-145 prostate): 2530 nM
GI50 (NCI-H23 lung): 1700 nM
TGI (NCI-H23 lung): 3470 nM
GI50 (SK-OV-3 ovarian): 5360 nM
TGI (SK-OV-3 ovarian): 17.6 µM
GI50 (OVCAR-3 ovarian): 504 nM
TGI (OVCAR-3 ovarian): 1830 nM
GI50 (SNB-75 CNS): 1080 nM
TGI (SNB-75 CNS): 2400 nM
GI50 (SNB-19 CNS): 1540 nM
TGI (SNB-19 CNS): 2870 nM
GI50 (NCI-H522 lung): 828 nM
TGI (NCI-H522 lung): 2350 nM
GI50 (NCI/ADR-RES ovarian): 1830 nM
TGI (NCI/ADR-RES ovarian): 6.37 µM
GI50 (HS 578T breast): 1870 nM
TGI (HS 578T breast): 6.07 µM
GI50 (U251 CNS): 1480 nM
TGI (U251 CNS): 2810 nM
GI50 (LOX IMVI melanoma): 1430 nM
TGI (LOX IMVI melanoma): 2810 nM
GI50 (SF-539 CNS): 1310 nM
TGI (SF-539 CNS): 2580 nM
GI50 (SF-295 CNS): 3910 nM
TGI (SF-295 CNS): 13.8 µM
GI50 (A498 renal): 1590 nM
TGI (A498 renal): 2990 nM
GI50 (SN12C renal): 1270 nM
TGI (SN12C renal): 2560 nM
GI50 (ACHN renal): 592 nM
TGI (ACHN renal): 1870 nM
GI50 (HCT-15 colon): 368 nM
TGI (HCT-15 colon): 1590 nM
GI50 (RPMI-8226 leukemia): 281 nM
TGI (RPMI-8226 leukemia): 962 nM
GI50 (SK-MEL-28 melanoma): 1580 nM
TGI (SK-MEL-28 melanoma): 2940 nM
GI50 (PC-3 prostate): 1060 nM
TGI (PC-3 prostate): 2670 nM
GI50 (SW-620 colon): 401 nM
TGI (SW-620 colon): 1610 nM
GI50 (HCT-116 colon): 295 nM
TGI (HCT-116 colon): 1350 nM
GI50 (IGROV1 ovarian): 527 nM
TGI (IGROV1 ovarian): 1860 nM
GI50 (HOP-92 NSCLC): 864 nM
TGI (HOP-92 NSCLC): 2400 nM
GI50 (UO-31 renal): 1010 nM
TGI (UO-31 renal): 2170 nM
GI50 (786-0 renal): 1370 nM
TGI (786-0 renal): 2820 nM
GI50 (COLO 205 colon): 850 nM
TGI (COLO 205 colon): 2480 nM
GI50 (K-562 leukemia): 543 nM
TGI (K-562 leukemia): 4410 nM
GI50 (SF-268 CNS): 1490 nM
TGI (SF-268 CNS): 3020 nM
GI50 (HCC-2998 colon): 1700 nM
TGI (HCC-2998 colon): 3320 nM
GI50 (MOLT-4 leukemia): 356 nM
TGI (MOLT-4 leukemia): 1790 nM
GI50 (KM12 colon): 1690 nM
TGI (KM12 colon): 3680 nM
GI50 (SR leukemia): 232 nM
TGI (SR leukemia): 1050 nM

CCC[CH2][Sn-]([CH2]CCC)([CH2]CCC)[O]C(=O)C(C)C
GI50 (EKVX NSCLC): 154 nM
TGI (EKVX NSCLC): 362 nM
GI50 (CAKI-1 renal): 122 nM
TGI (CAKI-1 renal): 279 nM
GI50 (HT29 colon): 57.3 nM
TGI (HT29 colon): 208 nM
GI50 (TK-10 renal): 141 nM
TGI (TK-10 renal): 272 nM
GI50 (SK-MEL-2 melanoma): 189 nM
TGI (SK-MEL-2 melanoma): 411 nM
GI50 (OVCAR-5 ovarian): 107 nM
TGI (OVCAR-5 ovarian): 262 nM
GI50 (NCI-H460 lung): 57.1 nM
TGI (NCI-H460 lung): 197 nM
GI50 (MDA-MB-231 breast): 103 nM
TGI (MDA-MB-231 breast): 227 nM
GI50 (UACC-257 melanoma): 135 nM
TGI (UACC-257 melanoma): 265 nM
GI50 (MDA-MB-435): 153 nM
TGI (MDA-MB-435): 289 nM
GI50 (MALME-3M melanoma): 22.9 nM
TGI (MALME-3M melanoma): 204 nM
GI50 (HOP-62 NSCLC): 157 nM
TGI (HOP-62 NSCLC): 297 nM
GI50 (RXF 393 renal): 107 nM
TGI (RXF 393 renal): 237 nM
GI50 (M14 melanoma): 109 nM
TGI (M14 melanoma): 230 nM
GI50 (OVCAR-8 ovarian): 129 nM
TGI (OVCAR-8 ovarian): 255 nM
GI50 (SK-MEL-5 melanoma): 157 nM
TGI (SK-MEL-5 melanoma): 291 nM
GI50 (OVCAR-4 ovarian): 53.8 nM
TGI (OVCAR-4 ovarian): 196 nM
GI50 (A549 NSCLC): 130 nM
TGI (A549 NSCLC): 267 nM
GI50 (BT-549 breast): 135 nM
TGI (BT-549 breast): 312 nM
GI50 (NCI-H226 lung): 161 nM
TGI (NCI-H226 lung): 340 nM
GI50 (HL-60(TB) leukemia): 111 nM
TGI (HL-60(TB) leukemia): 304 nM
GI50 (UACC-62 melanoma): 200 nM
TGI (UACC-62 melanoma): 424 nM
GI50 (DU-145 prostate): 124 nM
TGI (DU-145 prostate): 252 nM
GI50 (NCI-H23 lung): 115 nM
TGI (NCI-H23 lung): 310 nM
GI50 (SK-OV-3 ovarian): 151 nM
TGI (SK-OV-3 ovarian): 0.293 µM
GI50 (OVCAR-3 ovarian): 114 nM
TGI (OVCAR-3 ovarian): 238 nM
GI50 (SNB-19 CNS): 186 nM
TGI (SNB-19 CNS): 351 nM
GI50 (NCI/ADR-RES ovarian): 154 nM
TGI (NCI/ADR-RES ovarian): 0.46 µM
GI50 (HS 578T breast): 354 nM
TGI (HS 578T breast): 1.92 µM
GI50 (U251 CNS): 144 nM
TGI (U251 CNS): 294 nM
GI50 (LOX IMVI melanoma): 81.6 nM
TGI (LOX IMVI melanoma): 215 nM
GI50 (SF-539 CNS): 157 nM
TGI (SF-539 CNS): 296 nM
GI50 (SF-295 CNS): 199 nM
TGI (SF-295 CNS): 0.365 µM
GI50 (A498 renal): 153 nM
TGI (A498 renal): 286 nM
GI50 (SN12C renal): 158 nM
TGI (SN12C renal): 318 nM
GI50 (ACHN renal): 142 nM
TGI (ACHN renal): 273 nM
GI50 (HCT-15 colon): 117 nM
TGI (HCT-15 colon): 249 nM
GI50 (RPMI-8226 leukemia): 109 nM
TGI (RPMI-8226 leukemia): 366 nM
GI50 (SK-MEL-28 melanoma): 182 nM
TGI (SK-MEL-28 melanoma): 329 nM
GI50 (PC-3 prostate): 107 nM
TGI (PC-3 prostate): 250 nM
GI50 (SW-620 colon): 124 nM
TGI (SW-620 colon): 272 nM
GI50 (HCT-116 colon): 55.3 nM
TGI (HCT-116 colon): 182 nM
GI50 (IGROV1 ovarian): 166 nM
TGI (IGROV1 ovarian): 324 nM
GI50 (HOP-92 NSCLC): 37 nM
TGI (HOP-92 NSCLC): 162 nM
GI50 (UO-31 renal): 158 nM
TGI (UO-31 renal): 312 nM
GI50 (786-0 renal): 109 nM
TGI (786-0 renal): 228 nM
GI50 (COLO 205 colon): 130 nM
TGI (COLO 205 colon): 274 nM
GI50 (K-562 leukemia): 146 nM
TGI (K-562 leukemia): 315 nM
GI50 (SF-268 CNS): 144 nM
TGI (SF-268 CNS): 333 nM
GI50 (HCC-2998 colon): 164 nM
TGI (HCC-2998 colon): 329 nM
GI50 (MOLT-4 leukemia): 102 nM
TGI (MOLT-4 leukemia): 348 nM
GI50 (KM12 colon): 34.7 nM
TGI (KM12 colon): 145 nM
